Experimental data from patent publication US7598389B2, “Silylated carboxamides” (Bayer Cropscience AG, priority 2003, dated 2009).

Test system: not listed separately
Assay: log P determination by HPLC on reverse-phase column (EEC Directive 79/831 Annex V.A8)
Format: physicochemical
Conditions: Table 1, C 18 reverse-phase column, 43° C., acidic range (pH 2.3)
Protocol: The given log P values were determined in accordance with EEC Directive 79/831 Annex V.A8 by HPLC (High Performance Liquid Chromatography) on a reverse-phase column (C 18). Temperature: 43° C.
Mobile phases for the determination in the acidic range (pH 2.3): 0.1% aqueous phosphoric acid, acetonitrile; linear gradient from 10% acetonitrile to 90% acetonitrile.
Calibration was carried out using unbranched alkan-2-ones (3 to 16 carbon atoms) with known log P values (determination of the log P values by the retention times using linear interpolation between two successive alkanones).

Row | Compound | logP
1 | C[Si](C)(C)CCc1ccccc1NC(=O)c1sccc1I [Example 24] | 4.85
2 | CC(C[Si](C)(C)C)c1ccccc1NC(=O)c1occc1I (racemic) [Example 11] | 4.73
3 | CC(C[Si](C)(C)C)c1ccccc1NC(=O)c1cn(C)nc1I (racemic) [Example 15] | 3.94
4 | C[Si](C)(C)CCc1ccccc1NC(=O)c1ccccc1I [Example 4] | 4.40
5 | Cn1cc(C(=O)Nc2ccccc2CC[Si](C)(C)C)c(C(Cl)Cl)n1 [Example 9] | 3.95
6 | C[Si](C)(C)CCc1cc(F)ccc1NC(=O)c1ccccc1C(F)(F)F [Example 26] | 4.39
7 | Cn1nc(C(F)(F)F)c(C(=O)Nc2ccccc2CC[Si](C)(C)C)c1F [Example 10] | 4.19
8 | CC(C[Si](C)(C)C)c1ccccc1NC(=O)c1sccc1I (racemic) [Example 12] | 5.05
9 | C[Si](C)(C)CCc1cc(F)ccc1NC(=O)c1sccc1I [Example 25] | 4.79
10 | C[Si](C)(C)CCc1ccccc1NC(=O)c1ccccc1Cl [Example 5] | 4.29
11 | Cc1occc1C(=O)Nc1ccccc1CC[Si](C)(C)C [Example 16] | 4.03
12 | C[Si](C)(C)C#Cc1ccccc1NC(=O)c1ccccc1Br [Example 21] | 4.93
13 | Cc1occc1C(=O)Nc1ccccc1C(C)C[Si](C)(C)C (racemic) [Example 17] | 4.33
14 | C[Si](C)(C)C#Cc1ccccc1NC(=O)c1ccccc1C(F)(F)F [Example 18] | 4.78
15 | Cn1cc(C(=O)Nc2ccccc2CC[Si](C)(C)C)c(Cl)n1 [Example 14] | 3.89
16 | CC(C[Si](C)(C)C)c1ccccc1NC(=O)c1ccccc1C(F)(F)F (racemic) [Example 3] | 4.63
17 | Cn1cc(C(=O)Nc2ccccc2CC[Si](C)(C)C)c(I)n1 [Example 8] | 3.68
18 | CC(C[Si](C)(C)C)c1ccccc1NC(=O)c1ccccc1I (racemic) [Example 2] | 4.67
19 | C[Si](C)(C)CCc1ccccc1NC(=O)c1ccccc1C(F)(F)F [Example 6] | 4.37
20 | CC(C[Si](C)(C)C)c1cc(F)ccc1NC(=O)c1ccccc1C(F)(F)F (racemic) [Example 22] | 4.61
21 | C[Si](C)(C)C#Cc1ccccc1NC(=O)c1ccccc1I [Example 19] | 4.97
22 | C[Si](C)(C)C#Cc1ccccc1NC(=O)c1ccccc1Cl [Example 20] | 4.96
23 | CC(C[Si](C)(C)C)c1cc(F)ccc1NC(=O)c1ccccc1I (racemic) [Example 23] | 4.64
24 | CC(C[Si](C)(C)C)c1ccccc1NC(=O)c1ccccc1Br (racemic) [Example 7] | 4.58

Same assay, conditions: pH 2.3, C 18 reverse-phase column, 43° C.

Row | Compound | chromatographic logP
25 | CC(C[Si](C)(C)C)c1ccccc1N (stereo not shown) [Example (III-1), 2-(1-methyl-2-trimethylsilylethyl)phenylamine] | 3.05
26 | C[Si](C)(C)CCc1ccccc1N [Example (III-2), 2-(2-trimethylsilylethyl)phenylamine] | 2.58
27 | C[Si](C)(C)CCc1ccccc1NC(=O)c1ccccc1Br [Example 1, 2-bromo-N-[2-(2-trimethylsilyl-ethyl)phenyl]benzamide] | 4.32
28 | C[Si](C)(C)C#Cc1ccccc1[N+](=O)[O-] [trimethyl-(2-nitrophenyl-ethynyl)silane] | 4.12

Test system: Venturia inaequalis
Assay: Venturia test (apple)/protective
Format: in vivo
Conditions: 240 h, apple plants, protective, application rate 100 g/ha, evaluation 10 days after inoculation, read-out: Efficacy in %
Protocol: Venturia Test (Apple)/Protective
(§1) To produce a suitable preparation of active compound, 1 part by weight of active compound is mixed with the stated amounts of solvent and emulsifier, and the concentrate is diluted with water to the desired concentration.
(§2) To test for protective activity, young plants are sprayed with the preparation of active compound at the stated application rate. After the spray coating has dried on, the plants are inoculated with an aqueous conidia suspension of the apple pathogen Venturia inaequalis and then remain in an incubation cabin at about 20° C. and 100% relative atmospheric humidity for one day.
The plants are then placed in a greenhouse at about 21° C. and a relative atmospheric humidity of about 90%.
Evaluation is carried out 10 days after the inoculation. 0% means an efficacy which corresponds to that of the control, whereas an efficacy of 100% means that no infection is observed.

Row | Compound | pest or weed control at 100 g/ha [%]
29 | CC(C[Si](C)(C)C)c1ccccc1NC(=O)c1ccccc1C(F)(F)F (stereo not shown) [drawing 54] | 99
30 | CC(C[Si](C)(C)C)c1ccccc1NC(=O)c1ccccc1I (stereo not shown) [drawing 55] | 100
31 | Cn1cc(C(=O)Nc2ccccc2CC[Si](C)(C)C)c(I)n1 [drawing 59] | 100
32 | Cn1nc(C(F)(F)F)c(C(=O)Nc2ccccc2CC[Si](C)(C)C)c1F [drawing 58] | 100
33 | C[Si](C)(C)CCc1ccccc1NC(=O)c1ccccc1Br [drawing 57] | 87
34 | Cc1ccsc1C(=O)Nc1ccccc1CC[Si](C)(C)C [drawing 60] | 100
35 | CC(C[Si](C)(C)C)c1ccccc1NC(=O)c1cn(C)nc1I (stereo not shown) [drawing 64] | 99
36 | CC(C[Si](C)(C)C)c1ccccc1NC(=O)c1occc1I (stereo not shown) [drawing 62] | 100
37 | C[Si](C)(C)CCc1cc(F)ccc1NC(=O)c1sccc1I [drawing 61] | 100
38 | C[Si](C)(C)CCc1ccccc1NC(=O)c1ccccc1C(F)(F)F [drawing 56] | 84
39 | CC(C[Si](C)(C)C)c1ccccc1NC(=O)c1sccc1I (stereo not shown) [drawing 63] | 100

Test system: Sphaerotheca fuliginea
Assay: Sphaerotheca test (cucumber)/protective
Format: in vivo
Conditions: cucumber plants, protective; application rate 750 g/ha; evaluation 7 days after inoculation
Protocol: Sphaerotheca Test (Cucumber)/Protective
as §1
To test for protective activity, young cucumber plants are sprayed with the preparation of active compound at the stated application rate. One day after the treatment, the plants are inoculated with a spore suspension of Sphaerotheca fuliginea. The plants are then placed in a greenhouse at 70% relative atmospheric humidity and a temperature of 23° C.
Evaluation is carried out 7 days after the inoculation. 0% means an efficacy which corresponds to that of the control, whereas an efficacy of 100% means that no infection is observed.

Row | Compound | Efficacy in % [%]
40 | CC(C[Si](C)(C)C)c1ccccc1NC(=O)c1ccccc1C(F)(F)F (stereo not shown) [drawing 65] | 100
41 | C[Si](C)(C)CCc1ccccc1NC(=O)c1ccccc1Br [drawing 67] | 100
42 | CC(C[Si](C)(C)C)c1ccccc1NC(=O)c1ccccc1I (stereo not shown) [drawing 66] | 100

Test system: Puccinia recondite
Assay: Puccinia test (wheat)/protective
Format: in vivo
Conditions: 240 h, wheat plants, protective, application rate 500 g/ha, evaluation ten days after inoculation, read-out: Efficacy in %
Protocol: Puccinia Test (Wheat)/Protective
To produce a suitable preparation of active compound, 1 part by weight of active compound is mixed with the stated amount of solvent and emulsifier, and the concentrate is diluted with water to the desired concentration.
as §2, with “sprayed” for “inoculated”, “a” for “an aqueous”, “Puccinia recondite. The plants” for “the apple pathogen Venturia inaequalis and then”, “at” for “at about”, “48 hours.” for “one day.”
The plants are then placed in a greenhouse at a temperature of about 20° C. and a relative atmospheric humidity of 80% to promote the development of rust pustules.
Evaluation is carried out ten days after the inoculation. 0% means an efficacy which corresponds to that of the control, whereas an efficacy of 100% means that no infection is observed.

Row | Compound | pest or weed control at 500 g/ha [%]
43 | CC(C[Si](C)(C)C)c1ccccc1NC(=O)c1ccccc1I (stereo not shown) [drawing 69] | 100
44 | Cc1ccsc1C(=O)Nc1ccccc1CC[Si](C)(C)C [drawing 74] | 100
45 | C[Si](C)(C)CCc1cc(F)ccc1NC(=O)c1sccc1I [drawing 76] | 100
46 | CC(C[Si](C)(C)C)c1ccccc1NC(=O)c1occc1I (stereo not shown) [drawing 77] | 100
47 | CC(C[Si](C)(C)C)c1ccccc1NC(=O)c1cn(C)nc1I (stereo not shown) [drawing 80] | 100
48 | Cc1occc1C(=O)Nc1ccccc1CC[Si](C)(C)C [drawing 73] | 100
49 | Cn1cc(C(=O)Nc2ccccc2CC[Si](C)(C)C)c(I)n1 [drawing 72] | 100
50 | C[Si](C)(C)CCc1ccccc1NC(=O)c1ccccc1I [drawing 70] | 100
51 | CC(C[Si](C)(C)C)c1ccccc1NC(=O)c1sccc1I (stereo not shown) [drawing 78] | 100
52 | C[Si](C)(C)CCc1ccccc1NC(=O)c1ccccc1C(F)(F)F [drawing 68] | 93
53 | C[Si](C)(C)CCc1ccccc1NC(=O)c1ccccc1Br [drawing 71] | 100
54 | CC(C[Si](C)(C)C)c1ccccc1NC(=O)c1ccccc1Br (stereo not shown) | 100
55 | C[Si](C)(C)CCc1ccccc1NC(=O)c1sccc1I [drawing 75] | 100
